Test results: the NIST ThermoML archive (doi:10.1016/j.jct.2008.07.002)

Details: Transpiration method

Cn1c(=O)c2c(ncn2C)n(C)c1=O [caffeine]
Details | vapor or sublimation pressure [kPa]
366.2 K, Crystal 2 | 0.00017
373.3 K, Crystal 2 | 0.00033
379.9 K, Crystal 2 | 0.00055
383.9 K, Crystal 2 | 0.00077
386.9 K, Crystal 2 | 0.00106
389.8 K, Crystal 2 | 0.00128
395.9 K, Crystal 2 | 0.00223
400.9 K, Crystal 2 | 0.00338
405 K, Crystal 2 | 0.00441
406 K, Crystal 2 | 0.00525
408 K, Crystal 2 | 0.00577
410.1 K, Crystal 2 | 0.00693
420.2 K, Crystal 1 | 0.01448
424.9 K, Crystal 1 | 0.02064
430.1 K, Crystal 1 | 0.02868
434.5 K, Crystal 1 | 0.03685
